According to patent US11643428B2, “Therapeutic drug for neurodegenerative disease and application thereof” (SHANGHAI PHARMACEUTICALS HOLDING CO., LTD., priority 2018, dated 2023):

System: neuroblastoma cells SK-N-SH
Experiment: Total Aβ in supernatant of SK-N-SH cells by ELISA
Type: cell-based
Settings: 30, 100, 300 μM, 24 hours
Experimental: Culture of neuroblastoma cells SK-N-SH and Aβ detection: SK-N-SH cells were cultured in DMEM, plated to 24 well plates and cultured for 24 hours, then PL201 (0, 30, 100, and 300 μM) was added. After co-incubation for 24 hours, the protein level of total Aβ in supernatant was detected by ELISA.
Culture of neuroblastoma cells SK-N-SH and Aβ detection: SK-N-SH cells were cultured in DMEM, plated to 24 well plates and cultured for 24 hours, then PL202 (0, 30, and 100 μM) was added. After co-incubation for 24 hours, protein level of total Aβ in supernatant was detected by ELISA.
Culture of neuroblastoma cells SK-N-SH and Aβ detection: SK-N-SH cells were cultured in DMEM, plated to 24 well plates and cultured for 24 hours, then PL171 (300 μM) was added. After co-incubation for 24 hours, protein level of total Aβ in supernatant was detected by ELISA.
Culture of neuroblastoma cells SK-N-SH and Aβ detection: SK-N-SH cells were cultured in DMEM, plated to 24 well plates and cultured for 24 hours, then PL172 (300 μM) was added. After co-incubation for 24 hours, protein level of total Aβ in supernatant was detected by ELISA.

COc1cc(/C=C/C(=O)OC2OC(C)C(O)C(O)C2O)ccc1O [PL201, (α-L-rhamnopyranosyl) ferulic acid ester]
Aβ production (total Aβ in supernatant): significantly inhibited
